Laboratory results reported in PubChem BioAssay AID248 (DTP/NCI, 2004).
Values joined by “and” are separate entries in the source; they are usually repeats but may differ in a detail not shown here. Equal entries are not always repeated. Toxic doses and inconclusive results are not listed. Cut-off read from the data, not from the text of the source: active = T/C of 150% or more; inactive = T/C below 125%.

System: L1210 leukemia ip in BDF1 mice, survival T/C
Assay: NCI In Vivo Anticancer Drug Screen. Data for tumor model L1210 Leukemia (intraperitoneal) in B6D2F1 (BDF1) mice
Conditions: endpoint: mean survival time, higher = longer survival
How it was run: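 Read-out is survival time, reported as the treated-group measurement over the vehicle-control measurement.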

[1] = dose: 100.0 mg/kg/injection, schedule: Q01DX009 (ip), vehicle: Klucel (hydroxypropylcellulose) (HPC)
[2] = dose: 100.0 mg/kg/injection, schedule: Q04DX003 (ip), vehicle: Klucel (hydroxypropylcellulose) (HPC)
[3] = dose: 200.0 mg/kg/injection, schedule: Q01DX009 (ip), vehicle: Klucel (hydroxypropylcellulose) (HPC)
[4] = dose: 200.0 mg/kg/injection, schedule: Q04DX003 (ip), vehicle: Klucel (hydroxypropylcellulose) (HPC)
[5] = dose: 400.0 mg/kg/injection, schedule: Q04DX003 (ip), vehicle: Klucel (hydroxypropylcellulose) (HPC)
[6] = dose: 400.0 mg/kg/injection, schedule: Q01DX009 (ip), vehicle: Klucel (hydroxypropylcellulose) (HPC)
[7] = dose: 100.0 mg/kg/injection, schedule: Q04DX003 (ip), vehicle: saline with Tween-80
[8] = dose: 200.0 mg/kg/injection, schedule: Q04DX003 (ip), vehicle: saline
[9] = dose: 400.0 mg/kg/injection, schedule: Q04DX003 (ip), vehicle: saline
[10] = dose: 100.0 mg/kg/injection, schedule: Q04DX002 (ip), vehicle: Klucel (hydroxypropylcellulose) (HPC)
[11] = dose: 100.0 mg/kg/injection, schedule: Q01DX001 (ip), vehicle: saline with Tween-80
[12] = dose: 200.0 mg/kg/injection, schedule: Q01DX001 (ip), vehicle: saline with Tween-80
[13] = dose: 400.0 mg/kg/injection, schedule: Q01DX001 (ip), vehicle: saline with Tween-80

Measured: T/C

CCc1ccccc1NC(=O)Sc1ccccc1C
inactive: [1] 90 % of control | [2] 110 % of control | [3] 87 % of control | [4] 102 % of control | [5] 100 % of control

O=C(COc1ccc(Cl)cc1)Nc1cc(C(F)(F)F)ccc1Cl
inactive: [1] 94 % of control | [2] 98 % of control | [3] 86 % of control | [4] 93 % of control | [6] 86 % of control | [5] 95 % of control

CCOCCOCCOC(C)Oc1cccc(C(=O)OCC)c1 (stereo unspecified)
inactive: dose: 100.0 mg/kg/injection, schedule: Q04DX002 (ip), vehicle: saline with Tween-80 103 % of control | dose: 200.0 mg/kg/injection, schedule: Q04DX002 (ip), vehicle: saline with Tween-80 103 % of control | dose: 400.0 mg/kg/injection, schedule: Q04DX002 (ip), vehicle: saline with Tween-80 100 % of control

O=C(Nc1cccc([N+](=O)[O-])c1)Nc1ccccc1C(F)(F)F
inactive: [1] 94 % of control | [3] 91 % of control | [6] 93 % of control

CCCCCCCCC/C=C(\CCCCCCCCCC)c1cc(C)ccc1C
inactive: dose: 12.5 mg/kg/injection, schedule: Q04DX002 (ip), vehicle: saline with Tween-80 94 % of control

C=CCSc1nccc(=O)[nH]1
inactive: [1] 110 % of control | [3] 96 % of control

NC(N)=NCCCC(NC(=O)OCc1ccccc1)C(=O)O (stereo unspecified)
inactive: [1] 106 % of control and 94 % of control | [2] 94 % of control and 97 % of control | [3] 109 % of control and 91 % of control | [4] 86 % of control and 99 % of control | [6] 97 % of control and 87 % of control | [5] 92 % of control

Nc1c(-c2ncc[nH]2)ncn1C1OC(CO)C(O)C1O (stereo unspecified)
inactive: dose: 100.0 mg/kg/injection, schedule: Q01DX005 (ip), vehicle: saline 94 % of control | dose: 200.0 mg/kg/injection, schedule: Q01DX005 (ip), vehicle: saline 93 % of control

CC1Cc2c(cccc2[N+](=O)[O-])C1=O (stereo unspecified)
inactive: [7] 101 % of control | dose: 200.0 mg/kg/injection, schedule: Q04DX003 (ip), vehicle: saline with Tween-80 96 % of control | dose: 400.0 mg/kg/injection, schedule: Q04DX003 (ip), vehicle: saline with Tween-80 107 % of control

COc1ccc(Cc2ccc3c(C)cc(Cl)nc3c2)cc1
inactive: dose: 100.0 mg/kg/injection, schedule: Q01DX001 (ip), vehicle: saline 98 % of control | dose: 200.0 mg/kg/injection, schedule: Q01DX001 (ip), vehicle: saline 103 % of control | dose: 400.0 mg/kg/injection, schedule: Q01DX001 (ip), vehicle: saline 108 % of control

Cc1ccc(C(C)C)c2cc(C=O)c(O)cc12
inactive: dose: 100.0 mg/kg/injection, schedule: Q01DX001 (sc), vehicle: olive oil, sesame oil, peanut oil 95 % of control | dose: 200.0 mg/kg/injection, schedule: Q01DX001 (sc), vehicle: olive oil, sesame oil, peanut oil 109 % of control | dose: 400.0 mg/kg/injection, schedule: Q01DX001 (sc), vehicle: olive oil, sesame oil, peanut oil 101 % of control

C=CC(=O)Oc1ccc([N+](=O)[O-])cc1
inactive: dose: 12.0 mg/kg/injection, schedule: Q01DX009 (ip), vehicle: saline 100 % of control | dose: 25.0 mg/kg/injection, schedule: Q01DX009 (ip), vehicle: saline 117 % of control | dose: 50.0 mg/kg/injection, schedule: Q01DX009 (ip), vehicle: saline 114 % of control | [8] 100 % of control | [9] 108 % of control

CC(C)(C)c1cc(C(C)(C)C)nc(C(C)(C)C)c1
inactive: dose: 100.0 mg/kg/injection, schedule: Q01DX001 (ip), vehicle: Klucel (hydroxypropylcellulose) (HPC) 98 % of control | dose: 200.0 mg/kg/injection, schedule: Q01DX001 (ip), vehicle: Klucel (hydroxypropylcellulose) (HPC) 98 % of control

Cc1ccccc1NC(=O)Oc1ccccc1-c1ccccc1
inactive: [10] 103 % of control | dose: 200.0 mg/kg/injection, schedule: Q04DX002 (ip), vehicle: Klucel (hydroxypropylcellulose) (HPC) 118 % of control | dose: 400.0 mg/kg/injection, schedule: Q04DX002 (ip), vehicle: Klucel (hydroxypropylcellulose) (HPC) 118 % of control

CCN(CC)CCCN=C(N)CCl
inactive: dose: 12.5 mg/kg/injection, schedule: Q01DX009 (ip), vehicle: Klucel (hydroxypropylcellulose) (HPC) 96 % of control | dose: 25.0 mg/kg/injection, schedule: Q01DX009 (ip), vehicle: Klucel (hydroxypropylcellulose) (HPC) 96 % of control | dose: 25.0 mg/kg/injection, schedule: Q04DX002 (ip), vehicle: Klucel (hydroxypropylcellulose) (HPC) 114 % of control | dose: 50.0 mg/kg/injection, schedule: Q04DX002 (ip), vehicle: Klucel (hydroxypropylcellulose) (HPC) 107 % of control | [10] 95 % of control

CCCCCSc1cccc(N)c1
inactive: [11] 112 % of control | [12] 102 % of control | [13] 97 % of control

CC(=O)NNc1nc(C)cs1
inactive: [7] 97 % of control

O=C(O)c1ccsc1C(=O)c1ccccc1
inactive: [11] 105 % of control | [12] 102 % of control | [13] 97 % of control

CC(=O)CSc1nc2nccnc2[nH]1
inactive: dose: 25.0 mg/kg/injection, schedule: Q01DX009 (ip), vehicle: saline with Tween-80 110 % of control | dose: 50.0 mg/kg/injection, schedule: Q01DX009 (ip), vehicle: saline with Tween-80 110 % of control | dose: 100.0 mg/kg/injection, schedule: Q01DX009 (ip), vehicle: saline with Tween-80 104 % of control | dose: 200.0 mg/kg/injection, schedule: Q01DX009 (ip), vehicle: saline with Tween-80 104 % of control | dose: 400.0 mg/kg/injection, schedule: Q01DX009 (ip), vehicle: saline with Tween-80 107 % of control

Clc1nc(I)c(Cl)c(C(Cl)(Cl)Cl)n1
inactive: dose: 12.5 mg/kg/injection, schedule: Q01DX001 (ip), vehicle: Klucel (hydroxypropylcellulose) (HPC) 89 % of control | dose: 25.0 mg/kg/injection, schedule: Q01DX001 (ip), vehicle: Klucel (hydroxypropylcellulose) (HPC) 93 % of control | dose: 50.0 mg/kg/injection, schedule: Q01DX001 (ip), vehicle: Klucel (hydroxypropylcellulose) (HPC) 89 % of control

NCCSS(=O)(=O)CCN
inactive: dose: 100.0 mg/kg/injection, schedule: Q01DX009 (ip), vehicle: saline 105 % of control | dose: 100.0 mg/kg/injection, schedule: Q04DX003 (ip), vehicle: saline 106 % of control | dose: 200.0 mg/kg/injection, schedule: Q01DX009 (ip), vehicle: saline 107 % of control | [8] 107 % of control | dose: 400.0 mg/kg/injection, schedule: Q01DX009 (ip), vehicle: saline 100 % of control | [9] 100 % of control

O/N=C1\c2ccccc2-c2cccc(I)c21
inactive: dose: 100.0 mg/kg/injection, schedule: Q01DX001 (ip), vehicle: carboxymethylcellulose (CMC) 92 % of control | dose: 200.0 mg/kg/injection, schedule: Q01DX001 (ip), vehicle: carboxymethylcellulose (CMC) 92 % of control | dose: 400.0 mg/kg/injection, schedule: Q01DX001 (ip), vehicle: carboxymethylcellulose (CMC) 94 % of control
